Experimental data as given in the supplement of paper PMC7645387.

How the values were obtained:
Details in all cases: treatment time: 6 days
HDFB [1] = experiment: cell viability relative to DMSO control; higher = less growth inhibition
Protocol: (§1)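 MCC cell lines (PeTa, MKL-1, MS-1, WaGa) and HDFB fibroblasts were treated for 6 days with serial dilutions (1e-11 to 1e-4 M) of single compounds in quadruplicate. Viability was read by CellTiter-Glo 2.0 and expressed as % of DMSO control.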

MKL-1 [2] = experiment: as above
Protocol: as §1

PeTa [3] = experiment: as above
Protocol: as §1

HDFB [4] = experiment: growth inhibition relative to DMSO control (fraction); higher = stronger growth inhibition
Protocol: (§2)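 Drug combination matrices: GSK-LSD1 (0, 1, 10, 100 nM) was combined with a second epigenetic drug (0 to 10 uM) on MCC lines PeTa and MKL-1 and on HDFB fibroblasts for 6 days, in quadruplicate. Viability was read by CellTiter-Glo 2.0. The response is the fraction of growth inhibition relative to DMSO, as input to synergyfinder Bliss analysis.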

MKL-1 [5] = experiment: as above
Protocol: as §2

PeTa [6] = experiment: as above
Protocol: as §2

Cc1sc2c(c1C)C(c1ccc(Cl)cc1)=N[C@@H](CC(=O)OC(C)(C)C)c1nnc(C)n1-2 [(+)-JQ1]
cell viability [%]
Details	log10 concentration (M): -4	log10 concentration (M): -5	log10 concentration (M): -6	log10 concentration (M): -7	log10 concentration (M): -8	log10 concentration (M): -9	log10 concentration (M): -10	log10 concentration (M): -11
HDFB [1]	0.0326	31.7	52	78.7	94.8	106	110	99
MKL-1 [2]	0.00849	0.0389	0.0944	20.7	66.8	89.2	94.1	93.9
PeTa [3]	0.0148	3.47	7.04	21.7	94.3	96.7	87.4	100

Cc1cc2c(cc1N1C(=O)c3cccc4c(CCCO)ccc(c34)C1=O)n(C)c(=O)n2C [BAY299]
cell viability [%]
Details	log10 concentration (M): -4	log10 concentration (M): -5	log10 concentration (M): -6	log10 concentration (M): -7	log10 concentration (M): -8	log10 concentration (M): -9	log10 concentration (M): -10	log10 concentration (M): -11
HDFB [1]	31.2	78.5	74.1	92.1	100	97.5	100	99.3
MKL-1 [2]	0.0297	0.557	20.6	102	88.4	111	101	92.3
PeTa [3]	0.141	2.01	37.3	88.5	92.1	94.4	103	95.8

Nc1ccccc1NC(=O)c1ccc(CNC(=O)OCc2cccnc2)cc1 [Entinostat]
cell viability [%]
Details	log10 concentration (M): -4	log10 concentration (M): -5	log10 concentration (M): -6	log10 concentration (M): -7	log10 concentration (M): -8	log10 concentration (M): -9	log10 concentration (M): -10	log10 concentration (M): -11
HDFB [1]	0.192	11	33.8	94.1	102	102	104	104
MKL-1 [2]	0.0104	0.0238	0.0511	75	102	102.6	101	102
PeTa [3]	0.0531	0.0605	0.0805	50.9	94.9	98.1	102	108

c1ccc([C@@H]2C[C@H]2NC2CCNCC2)cc1 [GSK-LSD1] + Cc1cc2c(cc1N1C(=O)c3cccc4c(CCCO)ccc(c34)C1=O)n(C)c(=O)n2C [BAY299]
growth inhibition
Details	partner concentration 0 nM	partner concentration 1 nM	partner concentration 10 nM	partner concentration 100 nM	partner concentration 1000 nM	partner concentration 10000 nM
HDFB [4], GSK-LSD1 concentration 0 nM	–	-0.0107	-0.0132	0.0763	0.607	0.697
HDFB [4], GSK-LSD1 concentration 1 nM	-0.0232	-0.0193	0.0121	0.0867	0.635	0.702
HDFB [4], GSK-LSD1 concentration 10 nM	0.076	0.0719	0.0472	0.207	0.674	0.727
HDFB [4], GSK-LSD1 concentration 100 nM	0.0758	0.0715	0.0856	0.201	0.695	0.713
MKL-1 [5], GSK-LSD1 concentration 0 nM	–	0.0343	-0.000673	0.0416	0.844	0.999
MKL-1 [5], GSK-LSD1 concentration 1 nM	0.104	0.0952	0.0872	0.0914	0.936	0.999
MKL-1 [5], GSK-LSD1 concentration 10 nM	0.516	0.425	0.457	0.475	0.972	1
MKL-1 [5], GSK-LSD1 concentration 100 nM	0.753	0.738	0.69	0.722	0.981	1
PeTa [6], GSK-LSD1 concentration 0 nM	–	-0.0148	-0.062	0.00688	0.806	0.998
PeTa [6], GSK-LSD1 concentration 1 nM	-0.0592	-0.0708	-0.0758	0.0174	0.764	0.997
PeTa [6], GSK-LSD1 concentration 10 nM	0.258	0.223	0.194	0.304	0.836	0.999
PeTa [6], GSK-LSD1 concentration 100 nM	0.749	0.743	0.723	0.736	0.989	0.999

c1ccc([C@@H]2C[C@H]2NC2CCNCC2)cc1 [GSK-LSD1] + Cc1sc2c(c1C)C(c1ccc(Cl)cc1)=N[C@@H](CC(=O)OC(C)(C)C)c1nnc(C)n1-2 [(+)-JQ1]
growth inhibition
Details	partner concentration 0 nM	partner concentration 1 nM	partner concentration 10 nM	partner concentration 100 nM	partner concentration 1000 nM	partner concentration 10000 nM
HDFB [4], GSK-LSD1 concentration 0 nM	–	-0.0405	-0.0664	0.475	0.743	0.784
HDFB [4], GSK-LSD1 concentration 1 nM	0.0649	0.0389	0.0119	0.469	0.75	0.796
HDFB [4], GSK-LSD1 concentration 10 nM	0.0598	0.0402	0.0248	0.531	0.761	0.792
HDFB [4], GSK-LSD1 concentration 100 nM	0.0941	0.0548	0.115	0.607	0.773	0.817
MKL-1 [5], GSK-LSD1 concentration 0 nM	–	-0.032	-0.0639	0.818	0.994	0.997
MKL-1 [5], GSK-LSD1 concentration 1 nM	0.00341	-0.0162	-0.0305	0.799	0.994	0.998
MKL-1 [5], GSK-LSD1 concentration 10 nM	0.349	0.33	0.364	0.849	0.999	1
MKL-1 [5], GSK-LSD1 concentration 100 nM	0.792	0.766	0.766	0.917	0.999	1
PeTa [6], GSK-LSD1 concentration 0 nM	–	-0.0721	-0.114	0.804	0.95	0.976
PeTa [6], GSK-LSD1 concentration 1 nM	-0.00975	-0.0422	-0.106	0.67	0.945	0.968
PeTa [6], GSK-LSD1 concentration 10 nM	0.536	0.522	0.489	0.848	0.975	0.995
PeTa [6], GSK-LSD1 concentration 100 nM	0.819	0.765	0.749	0.925	0.995	0.998

c1ccc([C@@H]2C[C@H]2NC2CCNCC2)cc1 [GSK-LSD1] + Nc1ccccc1NC(=O)c1ccc(CNC(=O)OCc2cccnc2)cc1 [Entinostat]
growth inhibition
Details	partner concentration 0 nM	partner concentration 1 nM	partner concentration 10 nM	partner concentration 100 nM	partner concentration 1000 nM	partner concentration 10000 nM
HDFB [4], GSK-LSD1 concentration 0 nM	–	0.0329	0.154	0.451	0.823	0.933
HDFB [4], GSK-LSD1 concentration 1 nM	0.0914	0.124	0.111	0.467	0.822	0.944
HDFB [4], GSK-LSD1 concentration 10 nM	0.24	0.233	0.246	0.421	0.81	0.947
HDFB [4], GSK-LSD1 concentration 100 nM	0.259	0.26	0.254	0.473	0.798	0.949
MKL-1 [5], GSK-LSD1 concentration 0 nM	–	0.0232	0.092	0.981	1	1
MKL-1 [5], GSK-LSD1 concentration 1 nM	0.121	0.169	0.164	0.956	1	1
MKL-1 [5], GSK-LSD1 concentration 10 nM	0.421	0.48	0.441	0.961	1	1
MKL-1 [5], GSK-LSD1 concentration 100 nM	0.761	0.745	0.649	0.958	1	1
PeTa [6], GSK-LSD1 concentration 0 nM	–	-0.000953	0.132	0.963	1	1
PeTa [6], GSK-LSD1 concentration 1 nM	0.0344	0.0611	0.145	0.975	1	1
PeTa [6], GSK-LSD1 concentration 10 nM	0.459	0.465	0.561	0.998	1	1
PeTa [6], GSK-LSD1 concentration 100 nM	0.787	0.776	0.761	0.974	1	1

c1ccc([C@@H]2C[C@H]2NC2CCNCC2)cc1 [GSK-LSD1] + O=C(NC[C@H](O)CN1CCc2ccccc2C1)c1ccnc(NC2CCC2)c1 [GSK591]
growth inhibition
Details	partner concentration 0 nM	partner concentration 1 nM	partner concentration 10 nM	partner concentration 100 nM	partner concentration 1000 nM	partner concentration 10000 nM
HDFB [4], GSK-LSD1 concentration 0 nM	–	-0.0108	0.034	0.242	0.285	0.348
HDFB [4], GSK-LSD1 concentration 1 nM	-0.00486	0.0263	0.00718	0.199	0.324	0.372
HDFB [4], GSK-LSD1 concentration 10 nM	0.0391	0.0408	0.0239	0.215	0.342	0.42
HDFB [4], GSK-LSD1 concentration 100 nM	0.0873	0.0906	0.093	0.285	0.355	0.44
MKL-1 [5], GSK-LSD1 concentration 0 nM	–	0.00697	0.0188	0.133	0.269	0.324
MKL-1 [5], GSK-LSD1 concentration 1 nM	0.144	0.148	0.163	0.253	0.423	0.432
MKL-1 [5], GSK-LSD1 concentration 10 nM	0.46	0.501	0.536	0.626	0.773	0.789
MKL-1 [5], GSK-LSD1 concentration 100 nM	0.733	0.769	0.754	0.771	0.894	0.849
PeTa [6], GSK-LSD1 concentration 0 nM	–	-0.0144	-0.0251	0.0642	0.125	0.21
PeTa [6], GSK-LSD1 concentration 1 nM	0.11	0.135	0.102	0.201	0.287	0.302
PeTa [6], GSK-LSD1 concentration 10 nM	0.615	0.624	0.611	0.64	0.731	0.679
PeTa [6], GSK-LSD1 concentration 100 nM	0.761	0.746	0.73	0.779	0.866	0.797
